Measured values taken from patent US20050266420A1, “Multigene predictors of response to chemotherapy” (Board of Regents, The University of Texas System, priority 2004, published 2005).
Like-named read-outs stand apart in the source and are kept apart here.

Key:
[1] = system: ZR75.1 breast cancer cells; assay: ATP cell viability assay (CellTiter-Glo) after siRNA transfection; assay type: cell-based, human; settings: 48 h drug exposure; for Effect of Tau down-regulation on sensitivity to the drug: ZR75.1 cells, Tau siRNA; for IC50: Homo sapiens, ZR-75-1, 48 h, read-out: IC50 concentration of paclitaxel
Source text: Small interfering RNA studies. Two siRNA oligonucleotides directed against microtubule associated protein Tau (genbank accession number NM_016835.1) were ordered from Qiagen. Breast cancer cell lines were screened for Tau protein expression by Western blot analysis using a monoclonal anti-Tau antibody (#13-1400: clone T14, Zymed, CA). ZR75.1 cells were selected for siRNA studies and were transfected with a control siRNA (directed against lamin) or 2 distinct anti-Tau siRNA (5′-[…]-3′ (SEQ ID NO:194) and 5′-[…]-3′) (SEQ ID NO:195) constructs. Five hundred nanograms of siRNA was transfected using 1.5 μl RNAiFect (Qiagen) onto 1-3×10^4 cells in 96-well plates or 5 μg of siRNA was transfected using 15 μl RNAiFect (Qiagen) onto 1.5-4×10^5 cells in 6-well plates following the manufactures instructions.
In vitro apoptosis and cell growth assays. Twenty-four hours after siRNA transfection, the medium was changed and cells were treated with various concentrations of paclitaxel and epirubicin. Proliferation rates were determined with CellTiter-Glo® Luminescent Cell Viability Assay, (Promega) after 48 hours of drug exposure according to the manufacturer's instructions. Chemosensitivity was determined from three separate experiments. Growth curves were generated with GraphPad Prism 4.01 (GraphPad Software, San Diego, Calif.). The effect of Tau expression on drug uptake was assayed using a fluorescent-conjugated paclitaxel (Oregon Green 488 paclitaxel, Molecular probes, Eugene, Oreg.) or spontaneously fluorescent epirubicin (Kimichi-Sarfaty et al., 2002; Harris et al., 2003). Forty-eight hours after siRNA transfection, 3×10^5 cells were trypsinized and resuspended in 1 ml of regular medium containing 1 μM of fluorescent paclitaxel or 16 μM of epirubicin and incubated at 37° C. for 20 to 80 min. The pellet was resuspended in 400 μl of phosphate-buffered saline before FACS analysis (Kimichi-Sarfaty et al., 2002) using CellQuest software (BD Biosciences, San Jose, Calif.). Data were recorded by the FACScan as arbitrary units. The amount of fluorescence per cell (arbitrary fluorescence units) was taken as the measure of drug uptake. […] Fluorescence paclitaxel uptake was also observed using an inverted fluorescent microscope.
Down regulation of Tau expression in breast cancer cells increases sensitivity to paclitaxel in vitro. […] The inventors assessed Tau protein expression in breast cancer cell lines with Western blot using an anti-Tau monoclonal antibody that recognizes Tau irrespectively of phosphorylation status. […] Twenty-four hours after siRNA transfection, cells were exposed to various concentrations of paclitaxel or epirubicin and cell viability was assessed after 48 h of drug exposure using an ATP cell viability assay. […]

ZR75.1 cells = assay: Fluorescent drug uptake by FACS in siRNA-transfected cells; assay type: cell-based, human; settings: 16 μM epirubicin, versus lamin knocked-down cells
Description: In vitro apoptosis and cell growth assays. Twenty-four hours after siRNA transfection, the medium was changed and cells were treated with various concentrations of paclitaxel and epirubicin. Proliferation rates were determined with CellTiter-Glo® Luminescent Cell Viability Assay, (Promega) after 48 hours of drug exposure according to the manufacturer's instructions. Chemosensitivity was determined from three separate experiments. Growth curves were generated with GraphPad Prism 4.01 (GraphPad Software, San Diego, Calif.). […] Data were recorded by the FACScan as arbitrary units. The amount of fluorescence per cell (arbitrary fluorescence units) was taken as the measure of drug uptake. […] Fluorescence paclitaxel uptake was also observed using an inverted fluorescent microscope.
Tau protein reduces paclitaxel binding to tubulin and interferes with the paclitaxel induced stabilization in vitro. […] To estimate paclitaxel binding to tubulin in the presence or absence of Tau protein, the uptake of fluorescent paclitaxel in Tau siRNA-treated (Tau knock down) cells and lamin siRNA-treated control cells were measured. Forty-four hours after siRNA transfection, cells were exposed to 1 μM Oregon green-paclitaxel for 20 to 80 min and then analyzed by FACS. The amount of fluorescent paclitaxel in the cells can be assessed by plotting fluorescence intensity in the X-axis and cell count on the Y-axis. […]

Bovine brain tubulin = assay: Tubulin polymerization assay (OD340); assay type: biochemical; settings: tubulin 20 μM, 37° C.; 20 μM paclitaxel or 15 μM Tau
Description: (§1) Tubulin polymerization assays. Bovine brain tubulin (2 mg/ml) polymerization assays were performed in 100-μl volumes at 37° C. using the Tubulin Polymerization Assay Kit (Cytoskeleton, Inc., Denver, Colo.) and following the manufacturer recommendations. Purified Tau protein was purchased from Cytoskeleton (ref #TA01). Fluorescent Bodipy-paclitaxel was purchased from Molecular probes (Bodipy 564/570, Molecular probes, Eugene, Oreg.). OD340 was measured every 30 seconds for 30-60 min. The plots show the change in turbidity after correcting the data for the baseline absorbance.
Microtubules are formed in vitro by non-covalent polymerization of tubulin dimers (Desai et al., 1997; Hong et al., 1998). Microtubule associated proteins, GTP and paclitaxel increase microtubule polymerization rates which can be measured by observing an increase in absorbance at 340 nm (Lu and Wood, 1993; Rao et al., 1999). The inventors hypothesized that Tau may reduce pharmacological tubulin polymerization induced by paclitaxel. The inventors performed a kinetic spectrophotometric tubulin polymerization assay in which Tau and paclitaxel were added together to the tubulin mixture. […] Next, tubulin was pre-incubated with Tau before adding paclitaxel which approximates a more physiological sequence of drug exposure. […]

tubulin = assay: Competition for fluorescent bodipy-paclitaxel binding to tubulin; design: species or system bovine; settings: 30 min pre-incubation; Tau 15 μM or unlabelled paclitaxel 20 μM; fluorescent paclitaxel 5 μM
Description: as §1
To examine if paclitaxel binding to tubulin is affected by Tau expression, the inventors used fluorescent bodipy-paclitaxel. When fluorescent paclitaxel binds to microtubules it results in enhanced fluorescence. The inventors used this characteristic to assess the competition between Tau and paclitaxel in vitro. Fluorescent paclitaxel (5 μM) was added to a tubulin solution after 30 minutes pre-incubation with Tau (15 μM) or regular (non-fluorescent) paclitaxel (20 μM), or reaction buffer alone and fluorescence was measured 30 minutes later. […] In the control wells, the addition of fluorescent paclitaxel induced polymerization and after 30 minutes, fluorescence emission was high.

Row | IC50 ([1]; ZR75.1 cells with Tau siRNA knock down) [nM] | IC50 ([1]; ZR75.1 control cells (lamin siRNA or no siRNA)) [nM] | Competition with fluorescent paclitaxel for binding to microtubules (tubulin) | SMILES | Effect of Tau down-regulation on sensitivity to the drug [1] | Fluorescence uptake in Tau knocked-down cells (ZR75.1 cells) | Tubulin polymerization (Bovine brain tubulin)
1 | – | – | – | COc1cccc2c1C(=O)c1c(O)c3c(c(O)c1C2=O)C[C@@](O)(C(=O)CO)C[C@@H]3O[C@H]1C[C@H](N)[C@@H](O)[C@H](C)O1 [epirubicin] | did not result in increased sensitivity | slightly decreased | –
2 | 100 | > 10000 | very high | CC(=O)O[C@H]1C(=O)[C@@]2(C)[C@H]([C@H](OC(=O)c3ccccc3)[C@]3(O)C[C@H](OC(=O)[C@H](O)[C@@H](NC(=O)c4ccccc4)c4ccccc4)C(C)=C1C3(C)C)[C@]1(OC(C)=O)CO[C@@H]1C[C@@H]2O [paclitaxel] | significantly increased the sensitivity | – | induced tubulin polymerization
